≈ marks a conversion by molar mass, not a printed value. Where only a bound is given, the exact number is not on record here.

What all share (type): functional, cell-based
One assay concerns NCI-H460. The assay is described as follows: Cytotoxic activity against human NCI-H460 cells after 48 hrs by MTT assay. The following applies: NCI-H460, 48 h. A general note: Tetrazolium dyes change colour on reduction, which living cells bring about.
A further assay deals with MDA-MB-231. Briefly: Cytotoxic activity against human MDA-MB-231 cells after 48 hrs by MTT assay. To be noted: MDA-MB-231, 48 h.
Assay [1] is described as follows: Cytotoxic activity against human BGC823 cells after 48 hrs by MTT assay. To be noted: BGC-823, 48 h.
Assay [2] in a line: Cytotoxic activity against human SGC7901 cells after 48 hrs by MTT assay. To be noted: SGC-7901, 48 h.

In the case of `C=C(C(=O)c1cc(OC)c(O)c(OC)c1)[C@@H](CO)C(=O)c1cc(OC)c(O)c(OC)c1`, the IC50 with NCI-H460 was 31.4 µg/mL (≈ 72.7 µM); in the assay on MDA-MB-231, 28.7 µg/mL (≈ 66.3 µM); in assay [1], 45.5 µg/mL (≈ 105 µM); in assay [2], 34.5 µg/mL (≈ 79.7 µM).

As to `C=C(C(=O)c1cc(OC)c(O)c(OC)c1)[C@H](CO)C(=O)c1cc(OC)c(O)c(OC)c1`, the IC50 in the assay on NCI-H460 was 63.4 µg/mL (≈ 147 µM); with MDA-MB-231, 53.3 µg/mL (≈ 123 µM); in assay [1] it was greater than 100 µg/mL; in assay [2], greater than 100 µg/mL.

As to `C=C(C(=O)c1cc(OC)c(O)c(OC)c1)C(CO)C(=O)c1cc(OC)c(O)c(OC)c1` (racemic), the IC50 amounted to 58.1 µg/mL (≈ 134 µM) in the assay with NCI-H460, 51.4 µg/mL (≈ 119 µM) in the assay with MDA-MB-231, 58.9 µg/mL (≈ 136 µM) in assay [1] and 67.5 µg/mL (≈ 156 µM) in assay [2].

What is called IC50 is the concentration that gives 50% inhibition. A lower IC50 goes with greater potency.

These data come from ChEMBL document CHEMBL3400055, “(+)- and (-)-liriodenol, a pair of novel enantiomeric lignans from Liriodendron hybrid” (Bioorg Med Chem Lett, 2015).
